Reference: patent US9187492B2, “Pyripyropene derivative having ACAT2 inhibiting activity and stable to metabolizing enzymes” (School Juridical Person Kitasato Institute, priority 2010, dated 2015)
Read-outs that look alike come from different tables or passages of the source.

Tests used:
[1] = in vitro; settings: female, Sprague-Dawley (SD), rat, microsomes, pH 7.4, Half-life
[2] = female, Sprague-Dawley (SD), rat, microsomes, 6 μg/mL, pH 7.4
[3] = Stability against metabolizing enzymes in the liver (hepatic microsome); settings: time until remaining amount reached 50%, 37° C.; for half-life at 6 μg/mL: female, Sprague-Dawley (SD), rat, liver microsomes, pH 7.4, Half-life; for Half-life: female SD rat hepatic microsome, 6 μg/mL, pH 7.4
[4] = biological target: T1, ACAT2 (Mus musculus, UniProt O88908); test: Measurement of ACAT2-inhibiting activity (murine hepatic microsome, [14C]cholesteryl oleate formation); assay type: biochemical; settings: for IC50: murine hepatic microsome membrane fraction, 5 min at 37° C., read-out: Inhibitory activity (concentration required for 50% inhibition of ACAT 2 = IC50); for Specific activity ((IC50 of the test compound)/(IC50 of PRD 043)): relative to PRD 043, class symbols
T1 construct: The resulting sediment was collected as a microsome fraction; from tissue; host or cells: mouse liver (hepatic microsome membrane fraction)
T1 sequence (O88908 1-525): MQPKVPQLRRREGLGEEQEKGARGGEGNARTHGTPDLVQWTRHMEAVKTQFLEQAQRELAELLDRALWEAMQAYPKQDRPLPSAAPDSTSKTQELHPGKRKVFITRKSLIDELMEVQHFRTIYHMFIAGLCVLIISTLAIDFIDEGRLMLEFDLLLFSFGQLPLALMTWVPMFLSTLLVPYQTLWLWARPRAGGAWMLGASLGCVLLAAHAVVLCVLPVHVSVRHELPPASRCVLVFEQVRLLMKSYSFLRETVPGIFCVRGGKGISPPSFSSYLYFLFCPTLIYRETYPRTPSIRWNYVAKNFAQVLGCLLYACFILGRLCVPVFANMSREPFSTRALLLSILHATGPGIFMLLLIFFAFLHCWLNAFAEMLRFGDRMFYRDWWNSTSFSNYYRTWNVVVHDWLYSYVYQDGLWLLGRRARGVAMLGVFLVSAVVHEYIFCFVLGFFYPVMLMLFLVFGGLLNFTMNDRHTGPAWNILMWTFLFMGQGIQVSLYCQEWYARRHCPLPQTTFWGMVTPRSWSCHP
Description: The enzyme source which was used was a membrane fraction derived from murine hepatic microsome. Mouse livers were homogenized in buffer solution A (50 mM Tris HCl solution (pH 7.8), 1 mM ethylene diamine tetraacetate, and 1 mM phenylmethanesulfonyl fluoride) using a Potter-type homogenizer (Tokyo-Riko). The homogenate was centrifuged at 12000×g, and the supernatant was subjected to ultracentrifugation at 100000×g. The resulting sediment was collected as a microsome fraction, and this fraction was adjusted so as to have a protein concentration of 5 mg/mL using buffer solution A.
As a control, 10 μL of methanol were used in place of the pyripyropene derivative.
The chloroform layer was evaporated to dryness and was used to spot a thin layer chromatography plate (silica gel plate, Merck, 0.5 mm thickness). Elution for separation was carried out using hexane/diethyl ether/acetic acid (70:30:1, v/v) as an eluant.
wherein the background is the radioactivity of a thin layer chromatography plate which was not spotted.

SMILES	half-life at 6 μg/mL [1] [h]	Half-life [2] [h]	half-life at 6 μg/mL [3] [h]	Half-life [3] [h]	IC50 [4] [nM]	Specific activity ((IC50 of the test compound)/(IC50 of PRD 043)) [4]
CC(=O)OC[C@@]1(C)[C@@H]2C[C@H](OC(C)=O)[C@@]3(C)Oc4cc(-c5cccnc5)oc(=O)c4[C@H](O)[C@@H]3[C@@]2(C)CC[C@@H]1OC(C)=O [PPA, pyripyropene A]	1	<1	–	–	–	–
COc1ccccc1[C@@H]1OCC2(C)C3C[C@H](OC(=O)c4ccc(F)cc4)[C@@]4(C)Oc5cc(-c6cccnc6)oc(=O)c5[C@H](O)C4[C@@]3(C)CC[C@@H]2O1 (some centres unmarked) [PRD162, 1,11-O-o-methoxybenzylidene-7-O-p-fluorobenzoyl-1,7,11-trideacetylpyripyropene A]	–	–	≥ 9	>9	1 to 10	+++ (10<specific activity≦20)
CC(=O)O[C@H]1CC[C@@]2(C)C(C[C@H](OC(C)=O)[C@@]3(C)Oc4cc(-c5cccnc5)oc(=O)c4[C@H](O)C23)C1(C)COC(=O)c1ccccc1 (some centres unmarked) [PRD177, 11-O-benzoyl-11-deacetylpyripyropene A]	–	–	≥ 9	>9	1 to 10	+++ (10<specific activity≦20)
CC12CO[C@@H](c3cccc4ccccc34)O[C@H]1CC[C@@]1(C)C2C[C@H](OC(=O)c2ccc(C#N)cc2)[C@@]2(C)Oc3cc(-c4cccnc4)oc(=O)c3[C@H](O)C12 (some centres unmarked) [PRD180, 1,11-O-o-naphthylidene-7-O-p-cyanobenzoyl-1,7,11-trideacetylpyripyropene A]	–	–	≥ 9	>9	1 to 10	+++ (10<specific activity≦20)
Cc1cccc(C)c1[C@@H]1OCC2(C)C3C[C@H](OC(=O)c4ccc(C#N)cc4)[C@@]4(C)Oc5cc(-c6cccnc6)oc(=O)c5[C@H](O)C4[C@@]3(C)CC[C@@H]2O1 (some centres unmarked) [PRD181, 1,11-O-o,o-dimethylbenzylidene-7-O-p-cyanobenzoyl-1,7,11-trideacetylpyripyropene A]	–	–	≥ 9	>9	0.5 to 1	+++ (10<specific activity≦20)
CC(=O)O[C@H]1CC2C3(C)CO[C@@H](c4ccccc4)O[C@H]3CC[C@]2(C)C2[C@@H](O)c3c(cc(-c4cccnc4)oc3=O)O[C@@]21C (some centres unmarked) [PRD186, 1,11-O-benzylidene-1,11-dideacetylpyripyropene A]	–	–	≥ 9	>9	1 to 10	+++ (10<specific activity≦20)
CC(=O)O[C@H]1CC2C(C)(COC(=O)C(C)C)[C@@H](OC(=O)C(C)C)CC[C@]2(C)C2[C@@H](O)c3c(cc(-c4cccnc4)oc3=O)O[C@@]21C (some centres unmarked) [PRD187, 1,11-O-diisobutyryl-1,11-dideacetylpyripyropene A]	–	–	≥ 9	>9	0.5 to 1	+++ (10<specific activity≦20)

Continued, values first:

half-life at 6 μg/mL [1] [h]	Half-life [2] [h]	half-life at 6 μg/mL [3] [h]	Half-life [3] [h]	IC50 [4] [nM]	Specific activity ((IC50 of the test compound)/(IC50 of PRD 043)) [4]	SMILES
–	–	≥ 9	>9	0.5 to 1	+++ (10<specific activity≦20)	Cc1ccc([C@@H]2OCC3(C)C4C[C@H](OC(=O)c5ccc(F)cc5)[C@@]5(C)Oc6cc(-c7cccnc7)oc(=O)c6[C@H](O)C5[C@@]4(C)CC[C@@H]3O2)c(C)c1 (some centres unmarked) [PRD160, 1,11-O-o,p-dimethylbenzylidene-7-O-p-fluorobenzoyl-1,7,11-trideacetylpyripyropene A]
–	–	≥ 9	>9	0.5 to 1	+++ (10<specific activity≦20)	COc1ccccc1[C@@H]1OCC2(C)C3C[C@H](OC(=O)c4ccc(C#N)cc4)[C@@]4(C)Oc5cc(-c6cccnc6)oc(=O)c5[C@H](O)C4[C@@]3(C)CC[C@@H]2O1 (some centres unmarked) [PRD161, 1,11-O-o-methoxybenzylidene-7-O-p-cyanobenzoyl-1,7,11-trideacetylpyripyropene A]
–	–	≥ 9	>9	0.5 to 1	+++ (10<specific activity≦20)	CC12CO[C@@H](c3ccccc3F)O[C@H]1CC[C@@]1(C)C2C[C@H](OC(=O)c2ccc(C#N)cc2)[C@@]2(C)Oc3cc(-c4cccnc4)oc(=O)c3[C@H](O)C12 (some centres unmarked) [PRD163, 1,11-O-o-fluorobenzylidene-7-O-p-cyanobenzoyl-1,7,11-trideacetylpyripyropene A]
–	–	≥ 9	>9	0.5 to 1	+++ (10<specific activity≦20)	CC12CO[C@@H](c3ccccc3F)O[C@H]1CC[C@@]1(C)C2C[C@H](OC(=O)c2ccc(F)cc2)[C@@]2(C)Oc3cc(-c4cccnc4)oc(=O)c3[C@H](O)C12 (some centres unmarked) [PRD164, 1,11-O-o-fluorobenzylidene-7-O-p-fluorobenzoyl-1,7,11-trideacetylpyripyropene A]
–	–	≥ 9	>9	0.5 to 1	+++ (10<specific activity≦20)	CC1(COC(=O)c2ccccc2)C2C[C@H](OC(=O)c3ccc(C#N)cc3)[C@@]3(C)Oc4cc(-c5cccnc5)oc(=O)c4[C@H](O)C3[C@@]2(C)CC[C@@H]1OC(=O)c1ccccc1 (some centres unmarked) [PRD166, 7-O-p-cyanobenzoyl-1,11-O-dibenzoyl-1,7,11-trideacetylpyripyropene A]
–	–	≥ 9	>9	0.5 to 1	+++ (10<specific activity≦20)	CCCCCC(=O)OCC1(C)C2C[C@H](OC(=O)c3ccc(C#N)cc3)[C@@]3(C)Oc4cc(-c5cccnc5)oc(=O)c4[C@H](O)C3[C@@]2(C)CC[C@@H]1OC(=O)CCCCC (some centres unmarked) [PRD167, 7-O-p-cyanobenzoyl-1,11-O-dihexanoyl-1,7,11-trideacetylpyripyropene A]
